Test results from PubChem BioAssay (NCI).
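In this assay, cells in 96-well plates receive the compound at five concentrations for 48 hours. Endpoints are linearly interpolated between the surrounding concentrations. GI50: concentration for 50% inhibition of growth. TGI is the concentration that stops growth completely.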

Experiments:
Experiment in all cases: inhibition of tumour cell growth, NCI panel, 48 h; in the data active = GI50 below about 0.43 µM; inactive = the rest
SR leukemia = tested on: SR leukemia
HL-60(TB) leukemia = tested on: HL-60(TB) leukemia
UACC-62 melanoma = tested on: UACC-62 melanoma
PC-3 prostate = tested on: PC-3 prostate
IGROV1 ovarian = tested on: IGROV1 ovarian
OVCAR-3 ovarian = tested on: OVCAR-3 ovarian
LOX IMVI melanoma = tested on: LOX IMVI melanoma
TK-10 renal = tested on: TK-10 renal
OVCAR-5 ovarian = tested on: OVCAR-5 ovarian
OVCAR-4 ovarian = tested on: OVCAR-4 ovarian
KM12 colon = tested on: KM12 colon
SNB-75 CNS = tested on: SNB-75 CNS
ACHN renal = tested on: ACHN renal
SK-OV-3 ovarian = tested on: SK-OV-3 ovarian
NCI-H522 lung = tested on: NCI-H522 lung
SNB-19 CNS = tested on: SNB-19 CNS
SN12C renal = tested on: SN12C renal
SK-MEL-2 melanoma = tested on: SK-MEL-2 melanoma
BT-549 breast = tested on: BT-549 breast
T-47D breast = tested on: T-47D breast
COLO 205 colon = tested on: COLO 205 colon
MCF7 breast = tested on: MCF7 breast
MOLT-4 leukemia = tested on: MOLT-4 leukemia
SF-295 CNS = tested on: SF-295 CNS
DU-145 prostate = tested on: DU-145 prostate
SF-268 CNS = tested on: SF-268 CNS
RXF 393 renal = tested on: RXF 393 renal
NCI-H23 lung = tested on: NCI-H23 lung
CAKI-1 renal = tested on: CAKI-1 renal
M14 melanoma = tested on: M14 melanoma
UO-31 renal = tested on: UO-31 renal
SK-MEL-28 melanoma = tested on: SK-MEL-28 melanoma
EKVX NSCLC = tested on: EKVX NSCLC
A549 NSCLC = tested on: A549 NSCLC
U251 CNS = tested on: U251 CNS
A498 renal = tested on: A498 renal
NCI/ADR-RES ovarian = tested on: NCI/ADR-RES ovarian
MDA-MB-435 = tested on: MDA-MB-435
NCI-H226 lung = tested on: NCI-H226 lung
OVCAR-8 ovarian = tested on: OVCAR-8 ovarian
RPMI-8226 leukemia = tested on: RPMI-8226 leukemia
786-0 renal = tested on: 786-0 renal
K-562 leukemia = tested on: K-562 leukemia
NCI-H460 lung = tested on: NCI-H460 lung
HOP-92 NSCLC = tested on: HOP-92 NSCLC
SK-MEL-5 melanoma = tested on: SK-MEL-5 melanoma
SF-539 CNS = tested on: SF-539 CNS
HT29 colon = tested on: HT29 colon
HS 578T breast = tested on: HS 578T breast
HOP-62 NSCLC = tested on: HOP-62 NSCLC
HCT-116 colon = tested on: HCT-116 colon
HCT-15 colon = tested on: HCT-15 colon
SW-620 colon = tested on: SW-620 colon
UACC-257 melanoma = tested on: UACC-257 melanoma

COc1ccc2c(c1OC)CO[C@@H]2[C@H]1c2c(c(Br)c3c(c2OC)OCO3)CCN1C
11.8 µM: TGI (SK-MEL-5 melanoma)
7.65 µM: TGI (SF-295 CNS)
43.7 µM: TGI (SK-MEL-2 melanoma)
23.1 µM: TGI (NCI-H522 lung)
35.9 µM: TGI (BT-549 breast)
9.3 µM: TGI (SF-539 CNS)
19.9 µM: TGI (UACC-257 melanoma)
4.43 µM: TGI (A498 renal)
22 µM: TGI (NCI-H23 lung)
inactive: GI50 (SR leukemia) 1.01 µM | GI50 (HL-60(TB) leukemia) 1.89 µM | GI50 (UACC-62 melanoma) 2.07 µM | GI50 (PC-3 prostate) 8.74 µM | GI50 (IGROV1 ovarian) 8.73 µM | GI50 (OVCAR-3 ovarian) 3.91 µM | GI50 (LOX IMVI melanoma) 2.67 µM | GI50 (TK-10 renal) 4.42 µM | GI50 (OVCAR-5 ovarian) 18.6 µM | GI50 (OVCAR-4 ovarian) > 100 µM | GI50 (KM12 colon) 4.26 µM | GI50 (SNB-75 CNS) 40.2 µM | GI50 (ACHN renal) 6.63 µM | GI50 (SK-OV-3 ovarian) 61.2 µM | GI50 (NCI-H522 lung) 3.41 µM | GI50 (SNB-19 CNS) 39.2 µM | GI50 (SN12C renal) 3.98 µM | GI50 (SK-MEL-2 melanoma) 5.77 µM | GI50 (BT-549 breast) 6.8 µM | GI50 (T-47D breast) 66.8 µM | GI50 (COLO 205 colon) 31.4 µM | GI50 (MCF7 breast) 3.19 µM | GI50 (MOLT-4 leukemia) 3.55 µM | GI50 (SF-295 CNS) 2.84 µM | GI50 (DU-145 prostate) 6.96 µM | GI50 (SF-268 CNS) 5.16 µM | GI50 (RXF 393 renal) 4.9 µM | GI50 (NCI-H23 lung) 4.1 µM | GI50 (CAKI-1 renal) 4.17 µM | GI50 (M14 melanoma) 3.47 µM | GI50 (UO-31 renal) 10.6 µM | GI50 (SK-MEL-28 melanoma) 36.6 µM | GI50 (EKVX NSCLC) 3.95 µM | GI50 (A549 NSCLC) 7.53 µM | GI50 (U251 CNS) 4.59 µM | GI50 (A498 renal) 2.27 µM | GI50 (NCI/ADR-RES ovarian) 4.45 µM | GI50 (MDA-MB-435) 3.07 µM | GI50 (NCI-H226 lung) 5.16 µM | GI50 (OVCAR-8 ovarian) 7.3 µM | GI50 (RPMI-8226 leukemia) 4.24 µM | GI50 (786-0 renal) 4.66 µM | GI50 (K-562 leukemia) 2.37 µM | GI50 (NCI-H460 lung) 3.03 µM | GI50 (HOP-92 NSCLC) 6.74 µM | GI50 (SK-MEL-5 melanoma) 2.42 µM | GI50 (SF-539 CNS) 2.83 µM | GI50 (HT29 colon) 30.7 µM | GI50 (HS 578T breast) 3.08 µM | GI50 (HOP-62 NSCLC) 5.88 µM | GI50 (HCT-116 colon) 5.09 µM | GI50 (HCT-15 colon) 2.69 µM | GI50 (SW-620 colon) 3.57 µM | GI50 (UACC-257 melanoma) 4.28 µM
> 100 µM: TGI (SR leukemia) | TGI (HL-60(TB) leukemia) | TGI (PC-3 prostate) | TGI (IGROV1 ovarian) | TGI (OVCAR-5 ovarian) | TGI (OVCAR-4 ovarian) | TGI (SNB-75 CNS) | TGI (ACHN renal) | TGI (SK-OV-3 ovarian) | TGI (SNB-19 CNS) | TGI (T-47D breast) | TGI (MOLT-4 leukemia) | TGI (DU-145 prostate) | TGI (UO-31 renal) | TGI (SK-MEL-28 melanoma) | TGI (A549 NSCLC) | TGI (NCI/ADR-RES ovarian) | TGI (OVCAR-8 ovarian) | TGI (RPMI-8226 leukemia) | TGI (K-562 leukemia) | TGI (HT29 colon) | TGI (HCT-15 colon) | TGI (SW-620 colon)
12.7 µM: TGI (HS 578T breast)
29.8 µM: TGI (RXF 393 renal)
22.1 µM: TGI (CAKI-1 renal)
85.4 µM: TGI (COLO 205 colon)
25.5 µM: TGI (SF-268 CNS)
29.3 µM: TGI (MCF7 breast)
21.6 µM: TGI (TK-10 renal)
32.3 µM: TGI (NCI-H226 lung)
16.8 µM: TGI (SN12C renal)
9.74 µM: TGI (M14 melanoma)
9.2 µM: TGI (UACC-62 melanoma)
23.8 µM: TGI (KM12 colon)
13.6 µM: TGI (OVCAR-3 ovarian)
57.6 µM: TGI (HOP-92 NSCLC)
19.3 µM: TGI (786-0 renal)
14 µM: TGI (NCI-H460 lung)
22.6 µM: TGI (HCT-116 colon)
34.8 µM: TGI (EKVX NSCLC)
70.6 µM: TGI (U251 CNS)
12.2 µM: TGI (LOX IMVI melanoma)
8.69 µM: TGI (MDA-MB-435)
32.7 µM: TGI (HOP-62 NSCLC)
